# Measurements taken from US20240279207A1, “SUBSTITUTED ACYL SULFONAMIDES FOR TREATING CANCER” (The Broad Institute, Inc., priority 2020, published 2024).
# Experiments:
# [1] = target: T1, Recombinant human His-tagged Kat6a protein (amino acids 194-810) (Homo sapiens, UniProt Q92794); experiment: Kat6a activity assay (TR-FRET, acetylation of Histone-H4-derived peptide); type: biochemical; details: 60 mins at 22° C., 220 nM H4 peptide, 600 nM Acetyl Coenzyme A, read-out: KAT6A - DPF/HAT domain IC50 [mol/l] (arithmetic mean)
# T1 construct: Kat6a protein (amino acids 194-810); His
# [2] = test system: ESR1 transcription in MVLN cells; experiment: MVLN reporter assay: repression of ESR1 transcription (luciferase signal); type: cell-based; details: Homo sapiens, MVLN, 24 h, luciferase signal after 24 h, read-out: MVLN reporter assay, IC50 [M] (arithmetic mean)
# Procedure, shortened: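 To control for cell loss, Alamar Blue (2 h, 530/590 nm) precedes the 24 h luciferase measurement. The reporter is an ERE from the Xenopus vitellogenin A2 gene driving luciferase, stably transfected into ER-expressing MVLN cells; duplicate samples.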
# T1 sequence (Q92794 194-810): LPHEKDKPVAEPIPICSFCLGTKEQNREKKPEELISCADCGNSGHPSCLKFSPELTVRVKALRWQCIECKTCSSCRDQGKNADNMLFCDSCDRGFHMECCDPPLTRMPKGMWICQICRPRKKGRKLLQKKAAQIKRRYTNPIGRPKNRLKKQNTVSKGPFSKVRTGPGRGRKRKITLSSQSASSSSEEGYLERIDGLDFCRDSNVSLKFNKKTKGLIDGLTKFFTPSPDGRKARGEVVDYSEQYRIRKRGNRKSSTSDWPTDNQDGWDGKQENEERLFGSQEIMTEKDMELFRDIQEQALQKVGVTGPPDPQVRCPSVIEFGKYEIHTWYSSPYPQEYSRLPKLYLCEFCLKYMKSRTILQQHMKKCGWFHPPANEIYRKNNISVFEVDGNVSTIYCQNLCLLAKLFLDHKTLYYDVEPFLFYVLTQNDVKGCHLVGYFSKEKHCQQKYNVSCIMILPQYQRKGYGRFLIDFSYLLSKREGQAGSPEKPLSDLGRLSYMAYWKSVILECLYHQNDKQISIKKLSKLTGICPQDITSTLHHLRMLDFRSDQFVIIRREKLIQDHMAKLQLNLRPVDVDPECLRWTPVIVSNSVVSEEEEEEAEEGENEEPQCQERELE
SMILES,IC50 [1],IC50 [2]
"Cc1cccc(C2CCCC2)c1S(=O)(=O)NC(=O)c1cc2c(F)cc(N3CCC3)cc2o1 [Example 61, 6-(Azetidin-1-yl)-N-(2-cyclopentyl-6-methylbenzene-1-sulfonyl)-4-fluoro-1-benzofuran-2-carboxamide]",399 nM,5.6e-06 M
"O=C(NS(=O)(=O)c1ccccc1C(Cl)Cl)c1cc2c(F)cc(N3CC(F)C3)cc2o1 [Example 114, N-[2-(dichloromethyl)benzene-1-sulfonyl]-4-fluoro-6-(3-fluoroazetidin-1-yl)-1-benzofuran-2-carboxamide]",406 nM,> 2e-05 M
"O=C(NS(=O)(=O)c1ccccc1C(=O)N1CCOCC1)c1cc2c(F)cc(N3CCC3)cc2o1 [Example 73, 6-(Azetidin-1-yl)-4-fluoro-N-[2-(morpholine-4-carbonyl)benzene-1-sulfonyl]-1-benzofuran-2-carboxamide]",105 nM,2.56e-06 M
"COCc1cccc(S(=O)(=O)NC(=O)c2cc3c(F)cc(N4CCC4)cc3o2)c1 [Example 48, 6-(Azetidin-1-yl)-4-fluoro-N-[3-(methoxymethyl)benzene-1-sulfonyl]-1-benzofuran-2-carboxamide]",281 nM,1.29e-06 M
"COc1ccc(Cl)c(C)c1S(=O)(=O)NC(=O)c1cc2c(F)cc(N3CCC3)cc2o1 [Example 27, 6-(Azetidin-1-yl)-N-(3-chloro-6-methoxy-2-methylbenzene-1-sulfonyl)-4-fluoro-1-benzofuran-2-carboxamide]",49.6 nM,3.54e-07 M
"CCc1cccc(OCC2CC2)c1S(=O)(=O)NC(=O)c1cc2c(F)cc(N3CCC3)cc2o1 [Example 33, 6-(Azetidin-1-yl)-N-[2-(cyclopropylmethoxy)-6-ethylbenzene-1-sulfonyl]-4-fluoro-1-benzofuran-2-carboxamide]",73.5 nM,5.37e-07 M
"CSc1nc2ccccn2c1S(=O)(=O)NC(=O)c1cc2c(F)cc(N3CCC3)cc2o1 [Example 149, 6-(Azetidin-1-yl)-4-fluoro-N-[2-(methylsulfanyl)imidazo[1,2-a]pyridine-3-sulfonyl]-1-benzofuran-2-carboxamide]",261 nM,3.66e-06 M
"CC(C)Oc1ccc(Br)cc1S(=O)(=O)NC(=O)c1cc2c(F)cc(N3CCC3)cc2o1 [Example 170, 6-(azetidin-1-yl)-N-{5-bromo-2-[(propan-2-yl)oxy]benzene-1-sulfonyl}-4-fluoro-1-benzofuran-2-carboxamide]",10.5 nM,1.33e-07 M
"O=C(NS(=O)(=O)c1ccccc1CCC(F)(F)F)c1cc2c(F)cc(N3CCC3)cc2o1 [Example 52, 6-(Azetidin-1-yl)-4-fluoro-N-[2-(3,3,3-trifluoropropyl)benzene-1-sulfonyl]-1-benzofuran-2-carboxamide]",101 nM,1.55e-06 M
"COCCOc1ccc(Cl)c(S(=O)(=O)NC(=O)c2cc3c(F)cc(N4CCC4)cc3o2)c1 [Example 59, 6-(Azetidin-1-yl)-N-[2-chloro-5-(2-methoxyethoxy)benzene-1-sulfonyl]-4-fluoro-1-benzofuran-2-carboxamide]",208 nM,4.29e-06 M
"CN(C)c1ccc(Cl)c(S(=O)(=O)NC(=O)c2cc3c(F)cc(N4CCC4)cc3o2)c1 [Example 97, 6-(Azetidin-1-yl)-N-[2-chloro-5-(dimethylamino)benzene-1-sulfonyl]-4-fluoro-1-benzofuran-2-carboxamide]",14000 nM,> 2e-05 M
"CC1(C)Cc2cccc(S(=O)(=O)NC(=O)c3cc4c(F)cc(N5CCC5)cc4o3)c2O1 [Example 21, 6-(Azetidin-1-yl)-N-(2,2-dimethyl-2,3-dihydro-1-benzofuran-7-sulfonyl)-4-fluoro-1-benzofuran-2-carboxamide]",55.1 nM,2.98e-07 M
"Cc1nc(-c2ccc(S(=O)(=O)NC(=O)c3cc4c(F)cc(N5CC(F)C5)cc4o3)cc2)cs1 [Example 115, 4-Fluoro-6-(3-fluoroazetidin-1-yl)-N-[4-(2-methyl-1,3-thiazol-4-yl)benzene-1-sulfonyl]-1-benzofuran-2-carboxamide]",563 nM,3.81e-06 M
"COc1ccc(N2CCOCC2)cc1S(=O)(=O)NC(=O)c1cc2c(F)cc(N3CCC3)cc2o1 [Example 137, 6-(Azetidin-1-yl)-4-fluoro-N-[2-methoxy-5-(morpholin-4-yl)benzene-1-sulfonyl]-1-benzofuran-2-carboxamide]",26.2 nM,1.74e-07 M
"O=C(NS(=O)(=O)c1c(Cl)ccc2c1OC(F)(F)O2)c1cc2c(F)cc(N3CCC3)cc2o1 [Example 142, 6-(Azetidin-1-yl)-N-(5-chloro-2,2-difluoro-2H-1,3-benzodioxole-4-sulfonyl)-4-fluoro-1-benzofuran-2-carboxamide]",149 nM,1.2e-06 M
"O=C(NS(=O)(=O)c1ccccc1S(=O)(=O)c1ccccc1)c1cc2c(F)cc(N3CCC3)cc2o1 [Example 45, 6-(Azetidin-1-yl)-N-[2-(benzenesulfonyl)benzene-1-sulfonyl]-4-fluoro-1-benzofuran-2-carboxamide]",111 nM,1.1e-06 M

SMILES,IC50 [1],IC50 [2]
"CCCc1cccc(C(F)(F)F)c1S(=O)(=O)NC(=O)c1cc2c(F)cc(N3CCC3)cc2o1 [Example 58, 6-(Azetidin-1-yl)-4-fluoro-N-[2-propyl-6-(trifluoromethyl)benzene-1-sulfonyl]-1-benzofuran-2-carboxamide]",315 nM,3.87e-06 M
"CN1CCc2c(cccc2S(=O)(=O)NC(=O)c2cc3c(F)cc(N4CC(F)C4)cc3o2)C1 [Example 112, 4-Fluoro-6-(3-fluoroazetidin-1-yl)-N-(2-methyl-1,2,3,4-tetrahydroisoquinoline-5-sulfonyl)-1-benzofuran-2-carboxamide]",5210 nM,> 2e-05 M
"CCNc1ccccc1S(=O)(=O)NC(=O)c1cc2c(F)cc(N3CCC3)cc2o1 [Example 46, 6-(azetidin-1-yl)-N-[2-(ethylamino)benzene-1-sulfonyl]-4-fluoro-1-benzofuran-2-carboxamide]",122 nM,1.15e-06 M
"CCOc1c(F)cccc1S(=O)(=O)NC(=O)c1cc2c(F)cc(N3CCC3)cc2o1 [Example 206, 6-(azetidin-1-yl)-N-(2-ethoxy-3-fluoro-phenyl)sulfonyl-4-fluoro-benzofuran-2-carboxamide]",110 nM,4.44e-07 M
"O=C(NS(=O)(=O)c1cc(Br)ccc1OC(F)(F)F)c1cc2c(F)cc(N3CCC3)cc2o1 [Example 82, 6-(Azetidin-1-yl)-N-[5-bromo-2-(trifluoromethoxy)benzene-1-sulfonyl]-4-fluoro-1-benzofuran-2-carboxamide]",19.3 nM,3.66e-07 M
"O=C(NS(=O)(=O)c1c(F)cccc1OC1CCC1)c1cc2c(F)cc(N3CCC3)cc2o1 [Example 16, 6-(Azetidin-1-yl)-N-[2-(cyclobutyloxy)-6-fluorobenzene-1-sulfonyl]-4-fluoro-1-benzofuran-2-carboxamide]",43.5 nM,1.69e-07 M
"COc1cccc2c(S(=O)(=O)NC(=O)c3cc4c(F)cc(N5CCC5)cc4o3)cccc12 [Example 65, 6-(Azetidin-1-yl)-4-fluoro-N-(5-methoxynaphthalene-1-sulfonyl)-1-benzofuran-2-carboxamide]",57.1 nM,8.32e-06 M
"CC(C)c1ccc(OC2CCC2)c(S(=O)(=O)NC(=O)c2cc3c(F)cc(N4CCC4)cc3o2)c1 [Example 230, 6-(Azetidin-1-yl)-N-[(2-cyclobutoxy-5-isopropylphenyl)sulfonyl]-4-fluorobenzofuran-2-carboxamide]",7.71 nM,8.72e-08 M
"Cc1cncc2cccc(S(=O)(=O)NC(=O)c3cc4c(F)cc(N5CCC5)cc4o3)c12 [Example 193, 6-(Azetidin-1-yl)-4-fluoro-N-(4-methylisoquinoline-5-sulfonyl)-1-benzofuran-2-carboxamide]",4820 nM,> 2e-05 M
"CC(C)N(C)c1ccc(S(=O)(=O)NC(=O)c2cc3c(F)cc(N4CC(F)C4)cc3o2)c(F)c1F [Example 166, N-{2,3-difluoro-4-[methyl(propan-2-yl)amino]benzene-1-sulfonyl}-4-fluoro-6-(3-fluoroazetidin-1-yl)-1-benzofuran-2-carboxamide]",362 nM,7.22e-06 M
"COC(=O)/C=C/c1ccccc1S(=O)(=O)NC(=O)c1cc2c(F)cc(N3CCC3)cc2o1 [Example 74, Methyl (2E)-3-(2-{[6-(azetidin-1-yl)-4-fluoro-1-benzofuran-2-carbonyl]sulfamoyl}phenyl)prop-2-enoate]",89.8 nM,2.56e-06 M
"Cc1cccc(C(C)C)c1S(=O)(=O)NC(=O)c1cc2c(F)cc(N3CCC3)cc2o1 [Example 53, 6-(Azetidin-1-yl)-4-fluoro-N-[2-methyl-6-(propan-2-yl)benzene-1-sulfonyl]-1-benzofuran-2-carboxamide]",698 nM,1.58e-06 M
"COc1cccnc1S(=O)(=O)NC(=O)c1cc2c(F)cc(N3CCC3)cc2o1 [Example 67, 6-(Azetidin-1-yl)-4-fluoro-N-(3-methoxypyridine-2-sulfonyl)-1-benzofuran-2-carboxamide]",345 nM,1.1e-05 M
"Cc1ccc2c(S(=O)(=O)NC(=O)c3cc4c(F)cc(N5CCC5)cc4o3)nn(C)c2n1 [Example 145, 6-(Azetidin-1-yl)-N-(1,6-dimethyl-1H-pyrazolo[3,4-b]pyridine-3-sulfonyl)-4-fluoro-1-benzofuran-2-carboxamide]",402 nM,8.4e-06 M
"CCc1noc(-c2ccccc2S(=O)(=O)NC(=O)c2cc3c(F)cc(N4CCC4)cc3o2)n1 [Example 44, 6-(Azetidin-1-yl)-N-[2-(3-ethyl-1,2,4-oxadiazol-5-yl)benzene-1-sulfonyl]-4-fluoro-1-benzofuran-2-carboxamide]",189 nM,1.01e-06 M
